{"source": "patent US20230357354A1", "about": "“CD38-BINDING CD31 PEPTIDES AND USES THEREOF” (ENCEFA, priority 2020, published 2023)", "system": "6-OHDA mouse model", "assay": "6-OHDA mouse model, number of DA (TH+) neurons in the substantia nigra pars compacta", "format": "in vivo, mice", "settings": "15 mg/kg iv one day before 6-OHDA icv injection", "description": "Animals were treated in accordance with the Guide for the Care and Use of Laboratory Animals (National Research Council, 1996), with the European Directive 2010/63/EU, and the guidelines of the local institutional animal care and use committee. For all studies, 8 to 10 weeks-old male C57B1/6 mice (Janvier, France) were used. They were maintained on a 12:12 hours light/dark cycle with lights on at 8 a.m. The room temperature was kept at 20° C., with free access to standard diet and tap water.\nTwo in vivo mouse models were used: the 6-OHDA mouse model and the MPTP mouse model. For the 6-OHDA mouse model, the intoxication protocol was based on the unilateral stereotaxic intrastriatal injection of 6-OHDA in the right striatum. Intracerebral or intravenous injections of treatments were made either the day before the surgical stereotaxic procedure, concomitantly with 6-OHDA during the surgical stereotaxic procedure, or two days after 6-OHDA injection. Animals were sacrificed 8 days after the surgical stereotaxic procedure.\nFor unilateral 6-OHDA mouse model, animals were anesthetized using Chloral hydrate (400 mg/kg, i.p.) and placed into a stereotactic frame adapted to mice. The injection was performed using a Hamilton syringe at the following coordinates: AP: + […] (corresponding to the atlas of Franklin and Paxinos, 1997). […]"}
{"substance": "Daratumumab", "values": [{"measurement": "neuroprotective effect on DA neurons", "result": "failed to demonstrate neuroprotective activity"}]}
